What was measured:
[1] = Kinetic studies in solution: reaction of the probe with sulfide
Text: The reaction between the compound of [Chemical Formula 2-6] […] For example, the compound of [Chemical Formula 2-6] was synthesized from the reaction of the compound of [Chemical Formula 2-5] and HS^−. Also, precipitation of sulfur or sulfide was reported in the reaction between phenyl azide and Na2S.
This followed pseudo first-order kinetics with kobs=2.89×10^−4 s^−1 (FIG. 1b).
The k2 value calculated from the slope of the plot was 5.13 M^−1s^−1 (measured in HEPES buffer).
Reactions of the compound of [Chemical Formula 2-6] (5 μM) with Na2S (100-500 μM) in HEPES buffer or HEPES/EtOH (1/1, pH 7.2) were followed by monitoring of the increase in the fluorescence of the compound of [Chemical Formula 2-5] at 525-650 nm using a luminescence spectrometer.
The kinetic studies in a TP mode were conducted by the same procedure described above except that the TPEF was collected upon excitation at 750 nm.
In all cases, the plots of −ln(F^∞2−F2) vs. t were linear with good correlations. The kobs values were obtained from the slopes of the plots and the K2 values were obtained from the slopes of the plots of kobs vs. [HS^−]. [HS^−] was calculated by assuming that all of the Na2S was converted to HS^− and H2S, that is, [Na2S]=[H2S]+[HS^−], and using the relationship [H2S]/[HS^−]=[H^+]/Ka=0.794 in HEPES/EtOH (1/1, pH=7.2).

[2] = system: rat colon tissue; assay: Kinetic measurement of total sulfide in rat colon tissue slices; type: in vivo; conditions: before 5-FU treatment; for total sulfide concentration in colon tissue: probe 2-6; for kobs in colon tissue: tissue labeled with 2-6
Method: To quantitatively estimate the total sulfide concentration, kinetic experiments were performed in the colon tissue labeled with the compound of [Chemical Formula 2-6].
Male Sprague-Dawley rats (235-265 g) were divided into two groups (5-FU and control groups). In the 5-FU group, 150 mg/kg of 5-FU (SoloPak Laboratories, Franklin Park, Ill.) were intraperitoneally injected into the rats. The rats of the control group were injected with saline. Each group consisted of 4 rats.
8 hours after the intraperitoneal injection, all the rats were sacrificed. Laparotomy was performed after anesthetizing the rats.
Kinetic experiments in rat colon tissue were performed using four colon slices obtained from four rats. Two sets of experiments were performed for each slice. In each set, TPEF intensities from 8 ROI's/section were collected at depths of 90-150 μm (mucosa) and 151-170 μm (submucosa) in the colon tissue labeled with the compound of [Chemical Formula 2-6] and averaged.
The rate constant (kobs) was measured from 7 and 3 sections of the mucosa and submucosa tissues, respectively, in order to obtain 112 kobs and 48 kobs values, respectively. The rate constant (kobs) was expressed as mean±SD and p was set to be smaller than 0.05.

[3] = pH sensitivity of the fluorescence; type: physicochemical; conditions: biologically relevant pH range
[4] = system: HeLa cells; assay: Cell viability, CCK-8 kit; type: cell-based, human; conditions: incubation condition
[5] = system: HeLa cells; assay: Two-photon excited fluorescence spectra of labeled HeLa cells; type: cell-based, human
Method: Accordingly, it can be seen that HEPES/EtOH (1/1) has polarity similar to that of the cellular environment.
This confirms again that HEPES/EtOH (1/1) is a good model of the cellular environment and HS^− can be detected by TPM using the compound of [Chemical Formula 2-6].
HeLa human cervical carcinoma cells were acquired from the ATCC (Manassas, Va., USA). The cells were cultured in DMEM (WelGene, Inc., Seoul, Korea) supplemented with heat-inactivated 10% FBS (WelGene), penicillin (100 units/mL) and streptomycin ([…]).
For labeling, the growth medium was removed and replaced with DMEM without FBS. The cells were incubated with the compound of [Chemical Formula 2-6] ([…]) for 30 minutes, washed 3 times with FBS-free DMEM and imaged.
The TPM images were obtained with the DM IRE2 microscope (Leica) by exciting the probes with a mode-locked titanium-sapphire laser source (Coherent Chameleon, 90 MHz, 200 fs) set at a wavelength of 750 nm and an output power of 1380 mW, which corresponded to an average power of approximately 2 mW in the focal plane.

[6] = system: HeLa cells; assay: Kinetic estimation of total sulfide concentration in HeLa cells (TPEF); type: cell-based, human
Method: To quantitatively estimate the total sulfide concentration in living cells, the TPEF intensity of HeLa cells labeled with the compound of [Chemical Formula 2-6] was monitored in the absence and presence of Na2S, cysteine (Cys) and glutathione (GSH) with 20-30 minute intervals.
Since H2S and HS^− are in equilibrium and [H2S]/[HS^−]=[H^+]/Ka=0.794 in HEPES/EtOH (1/1, pH=7.2), it seems appropriate to present the total sulfide concentration ([H2S]+[HS^−]).
Kinetic experiments in HeLa cells were conducted in the same manner except that TPEF intensities from HeLa cells labeled with the compound of [Chemical Formula 2-6] upon excitation at 750 nm were monitored with 20-30 minute intervals.
The average TPEF intensities at given time and the SB2/SA1 ratio was obtained by dividing the TPEF intensity of [Chemical Formula 2-6] at 390-450 nm by that of [Chemical Formula 2-5] at 525-650 nm in the HeLa cells (FIG. 1b) were used in the kobs calculation.
The kobs value was measured at 10 regions of interest (ROIs) from three independent cell lines.
To evaluate the effect of Na2S, cysteine and GSH, HeLa cells were incubated with the compound of [Chemical Formula 2-6] (2 μM) and then treated with Na2S (100, 300 μM), cysteine (500 μM) and GSH (500 μM) for 30 minutes. The cells were then washed 3 times with FBS-free DMEM and subjected to kinetic measurement.

[7] = Selectivity for sulfide: ratiometric response (F2/F1) in the presence of various analytes
Method: The ratio of fluorescence intensities (F2/F1) measured at a short wavelength (F1) and a long wavelength (F2) at 0, 60 and 120 min is shown. All the data were obtained at 37° C. in HEPES buffer. Excitation wavelengths for one-photon and two-photon processes were 370 nm (short wavelength) and 750 nm (long wavelength), respectively.
To test whether the compound of [Chemical Formula 2-6] can selectively detect HS^− over other biologically relevant species, the ratiometric response of the compound of [Chemical Formula 2-6] was determined in the presence of various analytes.

pH sensitivity [3]: pH-insensitive
λ^flmax, maximum emission in cells [5]: 450 nm
Compound: COCCOCCC1(CCOCCOC)c2cc(NC(=O)OCc3ccc(N=[N+]=[N-])cc3)ccc2-c2ccc(-c3nc4ccccc4s3)cc21 [Chemical Formula 2-6]
k2, second-order rate constant of reaction with HS^− ([1]; HEPES buffer, slope of kobs vs. [HS^−]): 5.13 M⁻¹ s⁻¹
k2, second-order rate constant of reaction with HS^− ([1]; HEPES/EtOH (1/1, pH=7.2), calculated using pKa (H2S)=7.10): 5.17 M⁻¹ s⁻¹
influence of p-dinitrobenzene (electron acceptor) on kobs ([1]; addition of p-dinitrobenzene): not influenced
kobs, pseudo first-order rate constant ([1]; probe 5 μM + 100 μM Na2S, HEPES buffer, 37° C.): 0.000289 s⁻¹
total sulfide concentration in colon tissue ([2]; mucosa): 7.0 ± 2.7 µM
kobs in colon tissue ([2]; mucosa): (2.0±0.8)×10^−5 s^−1
total sulfide concentration in colon tissue ([2]; submucosa): 3.8 ± 1.4 µM
kobs in colon tissue ([2]; submucosa): (1.1±0.5)×10^−5 s^−1
toxicity (CCK-8 kit) [4]: negligible toxicity
kobs in labeled HeLa cells ([6]; HeLa cells labeled with 2-6, no additive): 0.0 ± 0.1 s⁻¹
total sulfide concentration ([H2S]+[HS^−]) in HeLa cells ([6]; no additive, probe 2-6): 0.0 ± 0.1 µM
reactivity toward other biologically relevant species ([7]; 10 mM GSH, 1 mM Cys, 1 mM 2-ME, RSS, RNS, ROS, Ala, Glu, metal ions): no reactivity
increase of relative fluorescence intensity ratio (F2/F1) ([7]; 100 mM Na2S (55.7 mM HS^−), HEPES buffer): 110 fold
F2/F1 after deazidation ([7]; HEPES buffer): 110
reactivity toward commercially available GSH ([7]; commercially available GSH): small reactivity
reactivity toward purified GSH ([7]; purified GSH): no reactivity
